Laboratory results as given in patent US12398141B2 (SHANGHAI SYNERGY PHARMACEUTICAL SCIENCES CO., LTD, priority 2019, dated 2025).

Tests used:
[1] = test system: Blast T cell; assay: Cell proliferation test of IL-2 stimulated Blast T cell; format: cell-based; details: Homo sapiens; IL-2 stimulated Blast T cell proliferation, 72 hours
Procedure: Inhibiting test of the compounds of the invention on proliferation of Blast T cell and TF-1 cell (American type culture collection) was carried out by the following method. The tested compounds […], and […] were dissolved in dimethyl sulfoxide from 0.0006 to 10 μM in quadruplicate dilutions. […] 10 μg/ml […] was added to stimulate and obtain cells with a density of 2×10^6/mL, which were incubated for 3 days. The cells were washed with phosphate buffer for three times and IL-2 (100 u/ml) was added to stimulate for 1 week. Cells were suspended using the culture medium and seeded at 5×10^4 cell/well density into 96-well plates, and incubated for 1 h with the prepared test compound or DMSO control at various concentrations from 0.0006 to 10 μM diluted by 4-fold volume. After incubation with 20 u/ml of IL-2 (50 μl/well without reference well) for 72 hours, Celltiter Glo® reagent (Promega, G7571) was added and mixed for 5 minutes, then incubated for 30 minutes at room temperature. The luminescence value was read on SpectraMax L (Molecular Device). […] The IC50 values of the corresponding compounds were then obtained by fitting by using the XLFit fitting tool in excel.

[2] = test system: TF-1 cell; assay: TF-1 cell proliferation test; format: cell-based; details: Homo sapiens, 72 h
Procedure: Inhibiting test of the compounds of the invention on proliferation of Blast T cell and TF-1 cell (American type culture collection) was carried out by the following method. The tested compounds […], and […] were dissolved in dimethyl sulfoxide from 0.0006 to 10 μM in quadruplicate dilutions. […] The luminescence value was read on Microplate Reader (Molecular Device). […] The IC50 values of the corresponding compounds were then obtained by fitting by using the XLFit fitting tool in excel.

[3] = target: JAK3 (Homo sapiens (Human), UniProt P52333); assay: JAK3 LANCE Ultra kinase assay; format: biochemical; details: 4 uM ATP
JAK3, sequence (P52333 whole entry): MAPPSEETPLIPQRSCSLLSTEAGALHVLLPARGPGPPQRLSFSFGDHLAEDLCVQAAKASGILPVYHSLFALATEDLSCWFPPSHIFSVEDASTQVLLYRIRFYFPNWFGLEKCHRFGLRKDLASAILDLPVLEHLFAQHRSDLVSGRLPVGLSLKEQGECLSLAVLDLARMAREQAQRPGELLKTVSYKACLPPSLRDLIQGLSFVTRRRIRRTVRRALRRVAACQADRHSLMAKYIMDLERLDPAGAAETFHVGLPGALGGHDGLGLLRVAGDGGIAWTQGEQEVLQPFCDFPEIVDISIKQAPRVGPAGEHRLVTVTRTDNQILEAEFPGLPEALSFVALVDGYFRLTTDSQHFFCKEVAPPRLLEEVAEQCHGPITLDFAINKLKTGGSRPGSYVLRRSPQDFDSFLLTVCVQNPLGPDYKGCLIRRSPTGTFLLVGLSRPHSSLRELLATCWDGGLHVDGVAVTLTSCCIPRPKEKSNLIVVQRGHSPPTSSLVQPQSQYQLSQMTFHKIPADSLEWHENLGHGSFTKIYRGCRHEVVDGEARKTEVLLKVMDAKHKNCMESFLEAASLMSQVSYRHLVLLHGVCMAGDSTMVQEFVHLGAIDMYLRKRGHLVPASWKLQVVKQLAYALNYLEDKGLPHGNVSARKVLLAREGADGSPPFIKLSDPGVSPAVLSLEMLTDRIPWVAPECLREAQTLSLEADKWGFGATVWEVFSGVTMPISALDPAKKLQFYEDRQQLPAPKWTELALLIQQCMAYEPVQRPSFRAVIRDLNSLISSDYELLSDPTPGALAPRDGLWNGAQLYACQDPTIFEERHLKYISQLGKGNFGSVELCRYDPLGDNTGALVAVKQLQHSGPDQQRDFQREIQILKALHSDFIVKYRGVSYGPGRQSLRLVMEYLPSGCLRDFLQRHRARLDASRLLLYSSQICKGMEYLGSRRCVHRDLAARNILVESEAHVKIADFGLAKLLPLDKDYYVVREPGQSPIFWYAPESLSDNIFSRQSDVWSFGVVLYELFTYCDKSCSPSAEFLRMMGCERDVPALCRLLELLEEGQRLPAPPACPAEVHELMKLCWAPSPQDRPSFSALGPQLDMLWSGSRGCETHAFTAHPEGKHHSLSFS

[4] = target: JAK1 (Homo sapiens (Human), UniProt P23458); assay: JAK1 LANCE Ultra kinase assay; format: biochemical; details: for IC50: 38 uM ATP; for JAK2/JAK1: ratio of IC50 JAK2 to IC50 JAK1
JAK1, sequence (P23458 whole entry): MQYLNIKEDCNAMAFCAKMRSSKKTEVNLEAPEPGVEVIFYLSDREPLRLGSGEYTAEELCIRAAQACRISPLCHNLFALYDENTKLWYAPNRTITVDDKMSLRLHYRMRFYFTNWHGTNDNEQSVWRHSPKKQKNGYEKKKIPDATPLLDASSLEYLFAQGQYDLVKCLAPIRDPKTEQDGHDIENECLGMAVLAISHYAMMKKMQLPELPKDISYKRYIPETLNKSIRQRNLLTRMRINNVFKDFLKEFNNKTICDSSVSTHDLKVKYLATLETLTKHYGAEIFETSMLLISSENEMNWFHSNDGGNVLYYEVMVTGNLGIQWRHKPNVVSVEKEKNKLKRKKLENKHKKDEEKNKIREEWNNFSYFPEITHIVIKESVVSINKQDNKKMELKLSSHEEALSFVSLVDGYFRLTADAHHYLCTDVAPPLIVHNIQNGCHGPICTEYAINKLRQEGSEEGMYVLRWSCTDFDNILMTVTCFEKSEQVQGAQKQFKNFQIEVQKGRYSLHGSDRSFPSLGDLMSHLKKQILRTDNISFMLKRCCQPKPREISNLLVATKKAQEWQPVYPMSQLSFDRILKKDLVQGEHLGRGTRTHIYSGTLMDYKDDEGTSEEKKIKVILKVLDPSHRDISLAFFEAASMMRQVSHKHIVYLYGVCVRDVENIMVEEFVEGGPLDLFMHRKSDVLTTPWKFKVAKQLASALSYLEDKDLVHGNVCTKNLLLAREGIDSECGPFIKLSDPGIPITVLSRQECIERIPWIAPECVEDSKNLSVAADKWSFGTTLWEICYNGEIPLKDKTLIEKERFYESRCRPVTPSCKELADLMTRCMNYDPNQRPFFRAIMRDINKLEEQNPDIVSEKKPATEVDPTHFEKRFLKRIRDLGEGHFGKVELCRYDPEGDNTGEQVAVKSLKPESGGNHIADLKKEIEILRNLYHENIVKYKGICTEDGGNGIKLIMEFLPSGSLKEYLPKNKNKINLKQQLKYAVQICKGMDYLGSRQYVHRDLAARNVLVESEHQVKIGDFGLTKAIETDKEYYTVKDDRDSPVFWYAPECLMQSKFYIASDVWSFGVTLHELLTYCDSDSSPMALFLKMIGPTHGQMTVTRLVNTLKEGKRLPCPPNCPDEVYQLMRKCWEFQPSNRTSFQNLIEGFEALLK
Procedure: Inhibition test on activity of JAK kinase in vitro was carried out by the following methods.
JAK1 LANCE® Ultra assay, JAK2 LANCE® Ultra assay and JAK3 LANCE® Ultra assay were used to carry out the test separately, and kits of the above assays were supplied by PerkinElmer. […]
JAK1, JAK2 and JAK3 kinase, ATP and substrates were dissolved and diluted with buffers.
A test liquid was 2 nM Eu-W1024 anti-phosphotyrosine (PerkinElmer, AD0069). A stop buffer was 10 mM edetic acid (Intech, 1842C505).
2.5 μl of an 8-fold solution of the compound and 5 μl of a 4-fold solution of JAK1 or JAK2 or JAK3 kinase were added into a 384-well plate, respectively, and reacted for 10 minutes at room temperature. 2.5 μl of an 8-fold solution of ULight™-JAK-1 peptide/ATP was added and reacted for 90 minutes at room temperature. Finally, 5 μl of 4-fold edetic acid stop buffer and 5 μl of 4-fold test liquid of Eu-W1024 anti-phosphotyrosine were added and incubated for 60 minutes.
According to the formula: percentage of inhibition rate=(maximum value−transform value)/(maximum value−minimum value)×100, inhibition rate of each compound at various concentrations was calculated. The maximum value was the reference value of dimethyl sulfoxide added into the well plate, the minimum value was the blank value, and the transform value is the value obtained by the well of each compound. The IC50 values of the corresponding compounds were then obtained by fitting by using the XLFit fitting tool in excel.

[5] = target: JAK2 (Homo sapiens (Human), UniProt O60674); assay: JAK2 LANCE Ultra kinase assay; format: biochemical; details: 12 uM ATP
JAK2, sequence (O60674 whole entry): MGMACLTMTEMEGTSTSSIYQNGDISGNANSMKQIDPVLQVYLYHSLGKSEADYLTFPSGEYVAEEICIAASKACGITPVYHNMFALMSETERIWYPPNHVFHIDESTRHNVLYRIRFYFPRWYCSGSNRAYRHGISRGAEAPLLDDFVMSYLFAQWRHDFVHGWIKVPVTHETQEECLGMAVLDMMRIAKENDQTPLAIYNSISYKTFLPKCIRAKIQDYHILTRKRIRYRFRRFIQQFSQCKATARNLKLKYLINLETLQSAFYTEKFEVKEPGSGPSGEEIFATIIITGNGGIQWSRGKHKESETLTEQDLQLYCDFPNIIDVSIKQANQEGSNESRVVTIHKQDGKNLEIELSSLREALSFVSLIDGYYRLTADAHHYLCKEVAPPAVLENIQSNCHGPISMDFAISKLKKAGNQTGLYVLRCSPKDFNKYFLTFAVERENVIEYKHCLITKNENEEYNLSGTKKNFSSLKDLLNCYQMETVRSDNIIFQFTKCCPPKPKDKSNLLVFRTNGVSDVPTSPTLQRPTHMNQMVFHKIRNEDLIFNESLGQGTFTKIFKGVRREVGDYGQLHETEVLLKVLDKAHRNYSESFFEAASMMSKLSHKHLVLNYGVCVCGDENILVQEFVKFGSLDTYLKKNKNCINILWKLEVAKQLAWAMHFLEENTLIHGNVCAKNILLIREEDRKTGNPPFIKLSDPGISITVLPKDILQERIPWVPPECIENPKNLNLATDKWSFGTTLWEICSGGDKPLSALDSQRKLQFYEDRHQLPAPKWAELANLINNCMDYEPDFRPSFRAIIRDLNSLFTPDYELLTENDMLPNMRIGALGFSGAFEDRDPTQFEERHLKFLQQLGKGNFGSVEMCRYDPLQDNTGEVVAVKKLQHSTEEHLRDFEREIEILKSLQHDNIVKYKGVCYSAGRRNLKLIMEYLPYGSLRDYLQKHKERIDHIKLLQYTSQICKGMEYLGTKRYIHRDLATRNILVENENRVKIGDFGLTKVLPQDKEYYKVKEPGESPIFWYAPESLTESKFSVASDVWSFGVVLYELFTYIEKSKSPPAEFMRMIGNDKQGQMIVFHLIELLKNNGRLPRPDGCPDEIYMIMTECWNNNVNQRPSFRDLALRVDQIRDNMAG

[6] = test system: Sprague-Dawley (SD) mice; assay: Concanavalin-induced paw swelling in mice; format: in vivo; details: 10 mg/kg intragastric
Procedure: (§1) The inhibiting effects of compounds H13, H14, H09, H11 and compounds of Example 12 on paw swelling in […] were determined after intragastric administration by using Sprague-Dawley (SD) […] (ShanghaiSippr-BK laboratory animal Co. Ltd.), aged 6-7 weeks and weighing 160-180 g as test animals. The anti-inflammatory pharmacodynamics characteristic of the compounds of the invention was discussed.
A certain amount of compounds were taken and dissolved in 4% Tween 80/0.5% hydroxy propyl methyl cellulose solution.
Mice were given compounds H01, H07, H11, H12, H14, H15, H22, H25, H29, H30, H33, H39, and H44 and the positive drug indomethacin (Diamond Reagent Co., Ltd., China) by intragastric administration at the dosages shown in the table below and 0.1 ml 0.03% (W/V) concanavalin was injected subcutaneously into the plantar 0.5 h later. A paw volume was measured with a paw swelling meter before modeling and 1 h, 2 h, 4 h and 6 h after modeling. According to the formula: paw swelling rate=(paw volume after administration−basic paw volume)/basic paw volume×100, the inhibiting effect of the compounds on paw volume was calculated. The basic paw volume was a paw volume before administration.

[7] = test system: male ICR mice; assay: Carrageenan-induced paw swelling in mice; format: in vivo; details: 10 mg/kg intragastric
Procedure: as §1, with “H01, H07, H11, H12,” for “H13,”, “H15, H22, H25, H29, H30, H33, H39” for “H09, H11”, “H44” for “compounds of Example 12”, “male ICR” for “Sprague-Dawley (SD)”, “8” for “6-7”, “22-24” for “160-180”
A certain amount of compounds were taken and dissolved in 4% Tween 80/0.5% hydroxy propyl methyl cellulose solution. A volume of intragastric administration in mice was 10 ml/kg.
Mice were given 10 mg/kg compounds H01, H07, H11, H12, H14, H15, H22, H25, H29, H30, H33, H39, and H44 and the positive drug indomethacin (Diamond Reagent Co., Ltd., China) by intragastric administration at the dosages shown in the table below and 20 μL 1% (W/V) carrageenan was injected subcutaneously into the plantar 0.5 h later. A paw volume was measured with a paw swelling meter before and at different time points after modeling (0.5 h, 1 h and 2 h). According to the formula: paw swelling rate=(paw volume after administration−basic paw volume)/basic paw volume×100, the inhibiting effect of the compounds on paw volume was calculated. The basic paw volume was a paw volume before administration.

Structure (SMILES) | IC50 [1] [µM] | IC50 [2] [µM] | IC50 [3] [nM] | IC50 [4] [nM] | JAK2/JAK1 [4] | IC50 [5] [nM] | other results
CC[C@@H]1CN(C(=O)NCC(F)(F)F)CC1N(C)c1c(C#N)cnc2[nH]ccc12 (stereo partly shown) [Compound H02] | 0.48 | 1.34 |  |  |  |  | 
CC[C@@H]1CC(NS(=O)(=O)c2cccc3nonc23)C[C@@H]1Nc1c(C#N)cnc2[nH]ccc12 (stereo partly shown) [Compound H58, N-(3-((5-cyano-1H-pyrrolo[2,3-b]pyridin-4-yl)amino)-4-ethylcyclopentyl)benzo[c][1,2,5] oxadiazole-4-sulfamide] | 0.041 | 0.98 |  |  |  |  | 
CNc1nsc(NC(=O)N2C[C@H]3C[C@H](N(C)c4c(C#N)cnc5[nH]ccc45)C[C@H]3C2)n1 [Compound H41, (3aR,5s,6aS)-5-((5-cyano-1H-pyrrolo[2,3-b]pyridin-4-yl)(methyl)amino)-N-(3-(methylamino)-1,2,4-thiadiazole-5-yl)hexahydrocyclopentadiene[c]pyrrole-2(1H)-carboxamide] | 0.055 | 1.64 |  |  |  |  | 
CN(c1c(C#N)cnc2[nH]ccc12)[C@H]1CC[C@H](CS(=O)(=O)N2CCC(C)(O)C2)CC1 (stereo partly shown) [Compound H62] | 0.029 | 1.32 | 40 | 5.8 | 2.76 | 16 | 
CN(c1c(C#N)cnc2[nH]ccc12)[C@H]1C[C@@H]2CN(C(=O)Nc3nc(C4CC4)ns3)C[C@@H]2C1 [Compound H26, (3aR,5s,6aS)-5-((5-cyano-1H-pyrrolo[2,3-b]pyridin-4-yl)(methyl)amino)-N-(3-cyclopropyl-1,2,4-thiadiazole-5-yl)hexahydrocyclopentadiene[c]pyrrole-2(1H)-carboxamide] | 0.027 | 1.98 | 101 | 2.6 | 6.92 | 18 | 
COc1nsc(NC(=O)N2C[C@H]3C[C@H](Nc4c(C(F)(F)F)cnc5[nH]ccc45)C[C@H]3C2)n1 [Compound H50, (3aR,5s,6aS)-5-((5-trifluoromethyl-1H-pyrrolo[2,3-b]pyridin-4-yl)amino)-N-(3-methoxy-1,2,4-thiadiazole-5-yl)hexahydrocyclopentadiene[c]pyrrole-2(1H)-carboxamide] | 0.034 | 0.85 | 137 | 4.65 |  | 33 | 
CN(c1c(C#N)cnc2[nH]ccc12)[C@H]1C[C@@H](NS(=O)(=O)c2cccc(C(F)(F)F)c2)C1 [Compound H09, 4-{[3-(3-(trifluoromethyl)benzenesulfonamido)-cyclobutyl-1-yl]-methyl-amino}-1H-pyrrolo[2,3-b]pyridin-5-carbonitrile] | 0.036 | 1.56 | 156 | 3.86 |  | 26.5 | 
COc1ccc2c(c1)c(CC(=O)O)c(C)n2C(=O)c1ccc(Cl)cc1 [Indomethacin, reference compound] |  |  |  |  |  |  | Paw swelling rate_1 h (%) ([6]; 1 h): 34.00 ± 2.30%; Paw swelling rate_2 h (%) ([6]; 2 h): 44.80 ± 3.00%; Paw swelling rate_4 h (%) ([6]; 4 h): 42.70 ± 2.00%; Paw swelling rate_6 h (%) ([6]; 6 h): 36.20 ± 2.00%; Paw swelling_0.5 h (%) ([7]; 0.5 h): 32.91 ± 3.22%; Paw swelling rate_1 h (%) ([7]; 1 h): 42.21 ± 4.64%; Paw swelling rate_2 h (%) ([7]; 2 h): 55.10 ± 2.21%
N#Cc1cnc2[nH]ccc2c1NC1CCN(S(=O)(=O)c2cccc(C(F)(F)F)c2)CC1 [Compound H34] | 0.044 | 1.54 |  |  |  |  | 
N#Cc1cnc2[nH]ccc2c1N[C@H]1C[C@@H](NS(=O)(=O)c2cccc3nonc23)C1 [Compound H19, (cis)-4-{[3-(benzo[c][1,2,5]oxadiazole-4-sulfonamido)-cyclobutyl-1-yl]-amino}-1H-pyrrolo[2,3-b]pyridin-5-carbonitrile] | 0.024 | 2.3 |  |  |  |  | 
CN(c1c(C#N)cnc2[nH]ccc12)[C@H]1C[C@@H]2CN(C(=O)Nc3nc(OCC(C)(C)O)ns3)C[C@@H]2C1 [Compound H45, (3aR,5s,6aS)-5-((5-cyano-1H-pyrrolo[2,3-b]pyridin-4-yl)(methyl)amino)-N-(3-(2-hydroxy-2-methyl-propoxy)-1,2,4-thiadiazole-5-yl)hexahydrocyclopentadiene[c]pyrrole-2(1H)-carboxamide] |  |  | 77 | 5.9 | 8.47 | 50 | 
C[C@@H]1CN(S(=O)(=O)C[C@H]2CC[C@H](N(C)c3c(C#N)cnc4[nH]ccc34)CC2)C[C@H]1CO (relative stereo) [Compound H66, 4-((trans-4-(((trans-3-(hydroxymethyl)-4-methylpyrrolidin-1-yl)sulfonyl)methyl)cyclohexyl)(methyl)amino)-1H-pyrrolo[2,3-b]pyridin-5-carbonitrile] |  |  | 197 | 8.9 | 14.16 | 126 | 
CN(c1c(C#N)cnc2[nH]ccc12)[C@H]1C[C@@H](NS(=O)(=O)CCC(F)(F)F)C1 [Compound H10, 4-{[3-(3,3,3-trifluoropropanesulfonamido)-cyclobutyl-1-yl]-methyl-amino}-1H-pyrrolo[2,3-b]pyridin-5-carbonitrile] |  |  | 143 | 4.98 |  | 36 | 
C[C@@H]1CN(C(=O)CC#N)C[C@@H]1N(C)c1c(C#N)cnc2[nH]ccc12 (relative stereo) [Compound H05, (cis)-4-{[4-methyl-1-(2-cyanoacetyl)pyrrolidin-3-yl]-methyl-amino}-1H-pyrrolo[2,3-b]pyridin-5-carbonitrile] |  |  | 256 | 7.86 | 1.56 | 12.3 | 
N#Cc1cnc2[nH]ccc2c1N[C@H]1C[C@@H](NS(=O)(=O)c2ccc(C(F)(F)F)cc2)C1 [Compound H17, (cis)-4-{[3-(4-trifluoromethylbenzenesulfonamido)-cyclobutyl-1-yl]-amino}-1H-pyrrolo[2,3-b]pyridin-5-carbonitrile] |  |  | 27 | 5 | 2.60 | 13 | 
